From paper PMC8708274, “Unveiling the Membrane and Cell Wall Action of Antimicrobial Cyclic Lipopeptides: Modulation of the Spectrum of Activity” (Pharmaceutics, 2021)
Where two headings read alike, the source gives them in different places. Positions of bridges follow the written chain, without caps; N, C: chain ends. Non-standard residues stand in square brackets, D forms with d. Residues, ends and D or L forms follow the SMILES beside them. *: point of attachment. Lauroyl = CCCCCCCCCCCC(=O)*; Decanoyl = CCCCCCCCCC(=O)*; dNle = CCCC[C@@H](N)C(=O)O; Nle = CCCC[C@H](N)C(=O)O; Dab = NCC[C@H](N)C(=O)O

Legend:
[1] = Kinetics of insertion into monolayers; assay type: binding; settings: 25 min after injection, 10 mM Tris pH 7.4, 25 °C, average of three independent experiments (error < 10%); for Increase in surface pressure (Δπ), POPE/POPG: POPE/POPG 6:4, initial pressure 32 mN·m^−1, peptide 0.48 μM; for Increase in surface pressure (Δπ), POPC / Increase in surface pressure (Δπ), POPG: initial pressure 32 mN·m^−1, peptide 0.48 μM
Method: (§1) Monolayer studies were performed at room temperature (25 °C) on a monolayer system (NIMA Technology, Coventry, UK) by using a cylindrical PTFE (Teflon®, Wilmington, DE, USA) trough (5 cm diameter) containing a continuously stirred aqueous phase (12 mL, 10 mM Tris pH 7.4) and a Wilhelmy platinum plate connected to an electrobalance. The system was enclosed in a Plexiglass box to reduce surface contamination, and before each run, the plate and the trough were cleaned with hot water at >70 °C to avoid carryover of lipid or peptide. Monolayers of POPG, POPE/POPG (6:4), POPC, or LPS were formed by applying small drops of the lipid stock solutions in CHCl3 on the aqueous subphase with a microsyringe (Hamilton Co., Reno, NV, USA) to achieve a surface pressure of 32 mN·m^−1. After 10 min, allowing for solvent evaporation, a known aliquot of peptide was added without disturbance of the monolayer via an inlet port, and the surface pressure was continuously monitored.

[2] = test system: Pseudomonas aeruginosa ATTC 27853; assay type: cell-based
Method: (§2) The minimal peptide concentration required to prevent the growth of a given test organism was determined after incubation overnight at 37 °C and was defined as the MIC. Activity was determined in representative bacteria, Escherichia coli ATTC 25922, Pseudomonas aeruginosa ATTC 27853, and Staphylococcus aureus ATTC 25923, using the broth microdilution method. Serial-two-fold dilutions of peptide (from 0.06 to 32 μg/mL) were performed in Mueller–Hinton broth (MHB) culture medium in sterile 96-well polypropylene microtiter plates inoculated with a final concentration of 5 × 10^5 CFU·mL^−1 of bacteria in each well. Bacteria were in the pre-exponential phase. Each determination was done by triplicate. In order to be considered acceptable, the three MIC results have to differ in only in one well, and the result was always given as the higher of the three. Drug-free and microorganism-free wells were used as positive and negative controls, respectively. Bacterial growth was visually determined on the basis of turbidity.

[3] = test system: Escherichia coli ATTC 25922; assay type: cell-based
Method: as §2

[4] = test system: Staphylococcus aureus ATTC 25923; assay type: cell-based
Method: as §2

[5] = Kinetics of insertion into monolayers; assay type: binding, Salmonella enterica serotype Minnesota Re 595; settings: initial pressure 32 mN·m^−1, peptide 0.48 μM, 25 min after injection, 10 mM Tris pH 7.4, 25 °C, average of three independent experiments (error < 10%)
Method: as §1

[6] = broth microdilution, MHB, 5 × 10^5 CFU/mL, overnight 37 °C, triplicate, higher of the three
[7] = value in brackets, broth microdilution, MHB, overnight 37 °C, triplicate

| Compound | Increase in surface pressure (Δπ), POPE/POPG [1] [mN·m^−1] | Increase in surface pressure (Δπ), POPC [1] [mN·m^−1] | Increase in surface pressure (Δπ), POPG [1] [mN·m^−1] | MIC PA ([2]; ATTC 27853) [µM] | MIC PA [2, 6] [µg/mL] | MIC EC ([3]; ATTC 25922) [µM] | MIC EC [3, 6] [µg/mL] | MIC SA ([4]; ATTC 25923) [µM] | MIC SA [4, 6] [µg/mL] | Increase in surface pressure (Δπ), LPS [5] [mN·m^−1] | MIC PA [2, 7] [µM] | MIC SA [4, 7] [µM] |
| --- | --- | --- | --- | --- | --- | --- | --- | --- | --- | --- | --- | --- |
| CCCCCCCCCCCC(=O)N[C@@H](CCN)C(=O)N[C@H](C(=O)N[C@@H](CCN)C(=O)N[C@H]1CSSC[C@H](C(N)=O)NC(=O)[C@H](CCN)NC(=O)[C@H](CCN)NC(=O)[C@H](CC(C)C)NC(=O)[C@@H](CC(C)C)NC(=O)[C@H](CCN)NC1=O)[C@@H](C)O [spE-4] (Lauroyl-[Dab]T[Dab]C[Dab][dL]L[Dab][Dab][dC]-NH2; disulfide 4-10) | 9.1 | 2.1 | 5.8 | 0.81 | 1 | 6.5 | 8 | 6.5 | 8 | 11.4 |  |  |
| CCCCCCCCCC(=O)N[C@@H](CCN)C(=O)N[C@H](C(=O)N[C@@H](CCN)C(=O)N[C@H]1CSSC[C@H](C(N)=O)NC(=O)[C@H](CCN)NC(=O)[C@H](CCN)NC(=O)[C@H](CCCC)NC(=O)[C@@H](CCCC)NC(=O)[C@H](CCN)NC1=O)[C@@H](C)O [spE-7] (Decanoyl-[Dab]T[Dab]C[Dab][dNle][Nle][Dab][Dab][dC]-NH2; disulfide 4-10) | 6.8 | 1.4 | 8.2 |  | 2 | 1.7 | 2 |  | 8 | 14.2 | 1.7 | 6.7 |
| CCCCCCCCCCCC(=O)N[C@@H](CCN)C(=O)N[C@H](C(=O)N[C@@H](CCN)C(=O)N[C@H]1CSSC[C@H](C(N)=O)NC(=O)[C@H](CCN)NC(=O)[C@H](CCN)NC(=O)[C@H](CCCC)NC(=O)[C@@H](CCCC)NC(=O)[C@H](CCN)NC1=O)[C@@H](C)O [spE-8] (Lauroyl-[Dab]T[Dab]C[Dab][dNle][Nle][Dab][Dab][dC]-NH2; disulfide 4-10) | 9.8 | 1.3 | 7.4 | 3.3 | 4 | 3.3 | 4 | 3.3 | 4 | 12.5 |  |  |
